# System: neuropathic mechanical hyperalgesia after partial sciatic nerve ligation
# Assay: Seltzer model (partial sciatic nerve ligation) of neuropathic pain, paw withdrawal threshold
# Assay type: in vivo, rat
# Settings: for % Reversal [mean ± SEM]: rat; for % reversal of neuropathic hyperalgesia / % reversal of neuropathic hyperalgesia, maximum analgesic efficacy: rat Seltzer model
# Experimental: In the Seltzer model, the partial sciatic nerve ligation model of neuropathic pain was used to produce neuropathic hyperalgesia in rats (Seltzer et al., “A Novel Behavioral Model of Neuropathic Pain Disorders Produced in Rats by Partial Sciatic Nerve Injury,” Pain 43:205-218 (1990)). Partial ligation of the left sciatic nerve was performed under isoflurane/O2 inhalation anaesthesia. Following induction of anesthesia, the left thigh of the male, 6-7 week old Jcl:SD rat was shaved. The sciatic nerve was exposed at high thigh level through a small incision and was carefully cleared of surrounding connective tissues at a site near the trocanther just distal to the point at which the posterior biceps semitendinosus nerve branches off of the common sciatic nerve. A 7-0 silk suture was inserted into the nerve with a ⅜ curved, reversed-cutting mini-needle and tightly ligated so that the dorsal ⅓ to ½ of the nerve thickness was held within the ligature. The wound was closed with a single muscle suture (4-0 nylon (Vicryl)) and vetbond tissue glue. The wound area was then dusted with antibiotic powder. Sham treatment involved an identical surgical procedure except that the sciatic nerve was not manipulated or ligated.
# Following surgery, animals were weighed and placed on a warm pad until they recovered from anesthesia. Animals were then returned to their home cages until behavioral testing began. The animal was assessed for response to noxious mechanical stimuli by determining PWT for the rear paw of the animal, as described below, prior to surgery (baseline), then immediately prior to and 1, 3, 5, 7, and 24 hours after oral drug-in-vehicle administration (for day 1). Thus, the 24 hour time point was the start of the next day when drug-in-vehicle was again orally administered (24 hours after the prior administration). On days 2 and 3, PWT response was determined 1, 3, and 24 hours thereafter. Percentage reversal of neuropathic hyperalgesia at each of the specified times after administration was defined as: […]
# Additionally, 10 mg/kg of pregabalin (Kemprotec, Ltd., Middlesbrough, UK), an anticonvulsant accepted for relief of particular neuropathic pain, in vehicle and the vehicle alone (0.5% weight/volume methylcellulose (400cP, Wako Pure Chemical Industries, Ltd.)/aqueous solution) were orally administered as controls. […] Ten rats that underwent partial ligation of the left sciatic nerve were used for each treatment group. Dunnett's test was conducted for the % reversal; values with p<0.05 were considered to be statistically significant.
# Additionally, as a control the rats underwent sham surgery in which an identical surgical procedure was followed with regard to the right thigh but the sciatic nerve was neither manipulated nor ligated.
# Response to Mechanical Stimuli as an Assessment of Mechanical Hyperalgesia: The paw pressure assay was used to assess mechanical hyperalgesia. […] Biochem. and Behavior 31:451-455 (1988). The maximum weight that could be applied to the hind paw was set at 250 g and the end point was taken as complete withdrawal of the paw. PWT was determined once for each rat at each time point and either only the affected (ipsilateral) paw was tested, or both the ipsilateral and contralateral (non-injured) paw were tested.
smiles,measurement,setting,value
CC1CN(c2ncc(C(O)CO)cc2F)CCN1C(=O)Nc1nc2cc(F)ccc2s1.O=C(O)C=CC(=O)O (centres unmarked),% Reversal [mean ± SEM],"1 mg/kg oral once daily, 1 hours (day 2) after administration",12.04 ± 4.92 %
same,% Reversal [mean ± SEM],"1 mg/kg oral once daily, 1 hours (day 3) after administration",6.44 ± 6.50%
same,% Reversal [mean ± SEM],"1 mg/kg oral once daily, 3 hours (day 2) after administration",12.84 ± 4.12 %
same,% Reversal [mean ± SEM],"1 mg/kg oral once daily, 3 hours (day 3) after administration",9.58 ± 5.23%
same,% Reversal [mean ± SEM],"1 mg/kg oral once daily, 24 hours (0 hrs day 2) after administration",0.71 ± 2.46%
same,% Reversal [mean ± SEM],"1 mg/kg oral once daily, 24 hours (0 hrs day 3) after administration",4.89 ± 2.68%
same,% Reversal [mean ± SEM],"1 mg/kg oral once daily, 24 hours (0 hrs day 4) after administration",0.51 ± 3.15%
same,% Reversal [mean ± SEM],"1 mg/kg oral, 1 hours (day 1) after administration",14.60 ± 4.26%
same,% Reversal [mean ± SEM],"1 mg/kg oral, 3 hours (day 1) after administration",17.04 ± 4.91 %
same,% Reversal [mean ± SEM],"1 mg/kg oral, 5 hours (day 1) after administration",11.39 ± 3.13 %
same,% Reversal [mean ± SEM],"1 mg/kg oral, 7 hours (day 1) after administration",3.04 ± 4.49%
same,% Reversal [mean ± SEM],"3 mg/kg oral once daily, 1 hours (day 2) after administration",12.57 ± 2.38 %
same,% Reversal [mean ± SEM],"3 mg/kg oral once daily, 1 hours (day 3) after administration",11.80 ± 3.29%
same,% Reversal [mean ± SEM],"3 mg/kg oral once daily, 3 hours (day 2) after administration",17.14 ± 5.38 %
same,% Reversal [mean ± SEM],"3 mg/kg oral once daily, 3 hours (day 3) after administration",17.34 ± 3.91 %
same,% Reversal [mean ± SEM],"3 mg/kg oral once daily, 24 hours (0 hrs day 2) after administration",−5.34 ± 4.20%
same,% Reversal [mean ± SEM],"3 mg/kg oral once daily, 24 hours (0 hrs day 3) after administration",−3.85 ± 4.61%
same,% Reversal [mean ± SEM],"3 mg/kg oral once daily, 24 hours (0 hrs day 4) after administration",−1.95 ± 2.97%
same,% Reversal [mean ± SEM],"3 mg/kg oral, 1 hours (day 1) after administration",15.69 ± 4.62%
same,% Reversal [mean ± SEM],"3 mg/kg oral, 3 hours (day 1) after administration",18.39 ± 1.67 %
same,% Reversal [mean ± SEM],"3 mg/kg oral, 5 hours (day 1) after administration",12.22 ± 1.89 %
same,% Reversal [mean ± SEM],"3 mg/kg oral, 7 hours (day 1) after administration",7.65 ± 2.79%
same,% Reversal [mean ± SEM],"10 mg/kg oral once daily, 1 hours (day 2) after administration",27.41 ± 4.56 %
same,% Reversal [mean ± SEM],"10 mg/kg oral once daily, 1 hours (day 3) after administration",23.36 ± 4.69 %
same,% Reversal [mean ± SEM],"10 mg/kg oral once daily, 3 hours (day 2) after administration",29.12 ± 5.44 %
same,% Reversal [mean ± SEM],"10 mg/kg oral once daily, 3 hours (day 3) after administration",28.91 ± 5.72 %
same,% Reversal [mean ± SEM],"10 mg/kg oral once daily, 24 hours (0 hrs day 2) after administration",3.38 ± 3.97%
same,% Reversal [mean ± SEM],"10 mg/kg oral once daily, 24 hours (0 hrs day 3) after administration",2.87 ± 4.62%
same,% Reversal [mean ± SEM],"10 mg/kg oral once daily, 24 hours (0 hrs day 4) after administration",11.09 ± 3.45%
same,% Reversal [mean ± SEM],"10 mg/kg oral, 1 hours (day 1) after administration",32.51 ± 5.00 %
same,% Reversal [mean ± SEM],"10 mg/kg oral, 3 hours (day 1) after administration",34.17 ± 5.60 %
same,% Reversal [mean ± SEM],"10 mg/kg oral, 5 hours (day 1) after administration",19.59 ± 3.04 %
same,% Reversal [mean ± SEM],"10 mg/kg oral, 7 hours (day 1) after administration",17.06 ± 2.95 %
same,% reversal of neuropathic hyperalgesia,"oral 1 mg/kg once daily, day 2, 3 hour time point",12.84%
same,"% reversal of neuropathic hyperalgesia, maximum analgesic efficacy","oral 1 mg/kg, single (day 1) administration",17.04%
same,% reversal of neuropathic hyperalgesia,"oral 3 mg/kg once daily, day 2, 3 hour time point",17.14%
same,% reversal of neuropathic hyperalgesia,"oral 3 mg/kg once daily, day 3, 3 hour time point",17.34%
same,"% reversal of neuropathic hyperalgesia, maximum analgesic efficacy","oral 3 mg/kg, 3 h after day 1 administration",18.39%
same,% reversal of neuropathic hyperalgesia,"oral 10 mg/kg once daily, day 2, 3 hour time point",29.12%
same,% reversal of neuropathic hyperalgesia,"oral 10 mg/kg once daily, day 3, 3 hour time point",28.91%
same,% reversal of neuropathic hyperalgesia,"oral 10 mg/kg, 3 h after day 1 administration (maximum)",34.17%
